From patent US20230381157A1, “RIFABUTIN FOR THE TREATMENT OF ACINETOBACTER BAUMANNII” (University of Southern California, priority 2018, published 2023)
Converted amounts (≈) assume the structure as drawn. “And” between values parts separate entries of the source, which are not always exact repeats. Equal entries are not always repeated. Where two headings read alike, the source gives them in different places.

Tests used:
A. baumannii ATCC 17978 = assay: IC50 dose response, inhibition of bacterial growth (BacTiter-Glo viability); format: cell-based, Acinetobacter baumannii; conditions: Acinetobacter baumannii, 11-point dose response, read-out: IC50
A. baumannii HUMC1 [1] = assay: as above; format: cell-based, Acinetobacter baumannii; conditions: Acinetobacter baumannii, 11-point dose response, read-out: IC50
A. baumannii HUMC1 [2] = assay: MIC, broth microdilution in MHII, RPMI or modified media; format: cell-based, Acinetobacter baumannii
A. baumannii [3] = assay: MIC, broth microdilution, A. baumannii clinical isolates / strain panel; format: cell-based, Acinetobacter baumannii; conditions: Acinetobacter baumannii; for MIC: read-out: MIC; for MIC50 / MIC90: A. baumannii strain panel; for MIC50: read-out: MIC50; for MIC90: read-out: MIC90
S. aureus LAC [4] = assay: microbe, parasite or virus in culture; format: cell-based; conditions: Staphylococcus aureus, read-out: MIC
K. pneumonia = assay: MIC, broth microdilution; format: cell-based; conditions: Klebsiella pneumoniae, read-out: MIC
E. coli = assay: MIC, broth microdilution; format: cell-based; conditions: Escherichia coli, E. coli JJ1886
A. baumannii [5] = format: cell-based, Acinetobacter baumannii
S. aureus LAC [6] = format: cell-based, Staphylococcus aureus; conditions: TSA
E. coli JJ1886 = format: cell-based, Escherichia coli; conditions: TSA
A. baumannii HUMC1 [7] = format: in vivo, mouse
A. baumannii HUMC1 [8] = format: in vivo, mouse; remark: listed apart in the source
Acinetobacter baumannii = assay: Galleria mellonella infection model; format: in vivo; conditions: Galleria mellonella; doses as high as 5 mg/kg
HEK293T = assay: Specificity: mammalian cell cytotoxicity / inhibition of bacteria growth (CC50/IC50)

CO[C@H]1/C=C/O[C@@]2(C)Oc3c(C)c(O)c4c(O)c(c(/C=N/N5CCN(C)CC5)c(O)c4c3C2=O)NC(=O)/C(C)=C\C=C\[C@H](C)[C@H](O)[C@@H](C)[C@@H](O)[C@@H](C)[C@H](OC(C)=O)[C@@H]1C [rifampin]
IC50 (A. baumannii ATCC 17978; ATCC17978, 24 h, ATCC 17978, RPMI + 50% Serum): 18.2 µM | IC50 (A. baumannii ATCC 17978; ATCC17978, ATCC 17978, RPMI + 50% Serum): 18.2 µM | IC50 (A. baumannii ATCC 17978; ATCC17978, ATCC 17978, RPMI): 13.8 µM | IC50 (A. baumannii HUMC1 [1]; HUMC1, 24 h, HUMC1, RPMI + 50% Serum): 7.99 µM | IC50 (A. baumannii HUMC1 [1]; HUMC1, HUMC1, RPMI + 50% Serum): 7.99 µM | IC50 (A. baumannii HUMC1 [1]; HUMC1, HUMC1, RPMI): 11 µM | MIC (A. baumannii HUMC1 [2]; Acinetobacter baumannii, HUMC1, HUMC1, 0.01% Triton X-100, read-out: MIC): 2 µg/mL (≈ 2.43 µM) | MIC (A. baumannii HUMC1 [2]; Acinetobacter baumannii, HUMC1, HUMC1, 0.05% Tween 20, MHII, read-out: MIC): 2 µg/mL (≈ 2.43 µM) | MIC (A. baumannii HUMC1 [2]; Acinetobacter baumannii, HUMC1, HUMC1, 25° C., MHII, read-out: MIC): 2 µg/mL (≈ 2.43 µM) | MIC (A. baumannii HUMC1 [2]; Acinetobacter baumannii, HUMC1, HUMC1, 25° C., RPMI, read-out: MIC): 2 µg/mL (≈ 2.43 µM) | MIC (A. baumannii HUMC1 [2]; Acinetobacter baumannii, HUMC1, HUMC1, MHII (CAMHB), read-out: MIC): 4 µg/mL (≈ 4.86 µM) | MIC (A. baumannii HUMC1 [2]; Acinetobacter baumannii, HUMC1, HUMC1, RPMI + Essential Amino Acid Solution (50×), read-out: MIC): 6.25 µg/mL | MIC (A. baumannii HUMC1 [2]; Acinetobacter baumannii, HUMC1, HUMC1, RPMI + L-Histidine 0.5 mM): 12.5 µg/mL | MIC (A. baumannii HUMC1 [2]; Acinetobacter baumannii, HUMC1, HUMC1, RPMI + L-Tryptophan 0.125 mM): 12.5 µg/mL | difference in MICs at lower temperature (A. baumannii HUMC1 [2]; HUMC1, 25° C. or 30° C. compared to 37° C., MHII or RPMI): did not observe any difference | MIC (A. baumannii HUMC1 [2]; HUMC1, MHII (CAMHB in b45)): 3.125 µg/mL (≈ 3.8 µM) | MIC (A. baumannii HUMC1 [2]; HUMC1, MHII (CAMHB in b45), listed as Rifampin): 3.125 µg/mL (≈ 3.8 µM) | MIC (A. baumannii HUMC1 [2]; HUMC1, MHII (CAMHB), listed as RIF): 2 µg/mL and 3.125 µg/mL | MIC (A. baumannii HUMC1 [2]; HUMC1, RPMI): 3.125 µg/mL (≈ 3.8 µM) | MIC (A. baumannii HUMC1 [2]; HUMC1, RPMI, listed as Rifampin): 3.125 µg/mL (≈ 3.8 µM) | MIC (A. baumannii [3]; A. baumannii (strain not named), MHII): 4 µg/mL (≈ 4.86 µM) | MIC (A. baumannii [3]; A. baumannii (strain not named), RPMI with serum): 4 µg/mL (≈ 4.86 µM) | MIC (A. baumannii [3]; A. baumannii VA-AB21, MHII): 3.12 µg/mL (≈ 3.8 µM) | MIC (A. baumannii [3]; A. baumannii VA-AB21, RPMI): > 6.12 µg/mL | MIC50 (A. baumannii [3]; CAMHB): 3.13 µg/mL (≈ 3.8 µM) | MIC90 (A. baumannii [3]; CAMHB): 6.25 µg/mL (≈ 7.59 µM) | MIC50 (A. baumannii [3]; RPMI): 12.5 µg/mL (≈ 15.2 µM) | MIC90 (A. baumannii [3]; RPMI): 25 µg/mL (≈ 30.4 µM) | MIC (A. baumannii [3]; ATCC17978, A. baumannii ATCC17978 and HUMC1, MHII): 2 µg/mL (≈ 2.43 µM) | MIC (A. baumannii [3]; ATCC17978, A. baumannii ATCC17978 and HUMC1, RPMI): 8 µg/mL (≈ 9.72 µM) | MIC (S. aureus LAC [4]; MHII): 0.025 µg/mL (≈ 0.0304 µM) | MIC (S. aureus LAC [4]; RPMI): 0.05 µg/mL (≈ 0.0608 µM) | MIC (K. pneumonia; K. pneumonia KP-3, MHII): 3.12 µg/mL (≈ 3.8 µM) | MIC (K. pneumonia; K. pneumonia KP-3, RPMI): 1.56 µg/mL (≈ 1.9 µM) | MIC (K. pneumonia; K. pneumonia KPC-KP1, MHII): 25 µg/mL (≈ 30.4 µM) | MIC (K. pneumonia; K. pneumonia KPC-KP1, RPMI): 50 µg/mL (≈ 60.8 µM) | MIC (E. coli; MHII): 6.25 µg/mL (≈ 7.59 µM) | MIC (E. coli; RPMI): 25 µg/mL (≈ 30.4 µM) | Mutation Frequency (A. baumannii [5]; A. baumannii ABNIH1, MHII): 4.17E−08 | Mutation Frequency (A. baumannii [5]; A. baumannii ATCC17978, MHII): 5.14E−09 | Mutation Frequency (A. baumannii [5]; A. baumannii ATCC17978, TSA): 7.95E−09 | Mutation Frequency (A. baumannii [5]; A. baumannii HUMC1, MHII): 9.19E−09 | Mutation Frequency (A. baumannii [5]; A. baumannii HUMC1, TSA): 1.44E−08 | Mutation Frequency (A. baumannii [5]; A. baumannii LAC-4, MHII): 2.62E−08 | Mutation Frequency (S. aureus LAC [6]): 9.49E−08 | Mutation Frequency (E. coli JJ1886): 2.21E−08 | survival (A. baumannii HUMC1 [7]; 5 mg/kg for 3 days, 2 days post infection): < 20% | survival (A. baumannii HUMC1 [7]; 5 mg/kg/daily for 3 days, oral gavage): did not protect from mortality | survival (A. baumannii HUMC1 [7]; 5 mg/kg/daily for 3 days, oral gavage, listed as RFP): did not improve survival vs. control | survival (A. baumannii HUMC1 [7]; 5 mg/kg/daily for 3 days, oral gavage, listed as RIF): did not do any better as compared to the PBS control group | lung CFUs (A. baumannii HUMC1 [7]; 5 mg/kg/daily for 3 days, oral gavage, lungs at 24 hrs post infection): did not reduce CFUs compared to control | bacterial burden (A. baumannii HUMC1 [7]; murine pneumonia, 5 mg/kg, day 7 post-infection): ~6.5 Log10(CFU/mg lung) | protection at minimum dose test (A. baumannii HUMC1 [8]; IV infection, RIF 10 or 30 mg/kg/daily for 3 days): only partially protective | survival (A. baumannii HUMC1 [8]; bacteremia model, 10 mg/kg for 3 days, 2 days post infection, PBS/control 0%): about 50% | protection (A. baumannii HUMC1 [8]; murine bacteremia, 10 mg/kg): 50% | protection (Acinetobacter baumannii): only a partial protection | Specificity HEK293T (CC50/IC50) (HEK293T; IC50 vs A. baumannii ATCC 17978, RPMI + 50% serum): 2.741 | Specificity HEK293T (CC50/IC50) (HEK293T; IC50 vs A. baumannii ATCC 17978, RPMI alone): 3.621 | Specificity HEK293T (CC50/IC50) (HEK293T; IC50 vs A. baumannii HUMC1, RPMI + 50% serum): 6.256 | Specificity HEK293T (CC50/IC50) (HEK293T; IC50 vs A. baumannii HUMC1, RPMI alone): 4.538
